Values of other authors, collected in patent US20240182421A1, “SYNTHESIS OF ENDOCHIN-LIKE QUINOLONES” (Oregon Health & Science University, priority 2021, published 2024).
“Also recorded” adds a separate entry of the source.

Assays:
malaria = settings: compared with ELQ-300
[1] = system: apicomplexan parasites of importance to veterinary medicine
avian malaria = settings: in vivo

For COc1cc2[nH]c(C)c(-c3ccc(Oc4ccc(OC(F)(F)F)cc4)cc3)c(=O)c2cc1F [ELQ-316, 6-Fluoro-7-methoxy-2-methyl-3-(4-(4-(trifluoromethoxy)phenoxy)phenyl)quinolin-4(1H)-one], the “antiparasitic activity / potency against Toxoplasma gondii” value (Toxoplasma gondii) is listed as “greatest potency; also recorded: superior antiparasitic activity”, the “antimalarial activity in vivo” value (malaria) is listed as “slightly less antimalarial activity than ELQ-300” and the “activity against a range of apicomplexan parasites of importance to veterinary medicine” value [1] is listed as “active”. The “antiparasitic activity / potency against Babesia microti” value (Babesia microti) was “greatest potency; also recorded: superior antiparasitic activity”.
For COc1cc2[nH]c(C)c(-c3ccc(Oc4ccc(OC(F)(F)F)cc4)cc3)c(=O)c2cc1Cl [ELQ-300, 6-Chloro-7-methoxy-2-methyl-3-(4-(4-(trifluoromethoxy)phenoxy)phenyl)quinolin-4(1H)-one], the “activity against a range of apicomplexan parasites of importance to veterinary medicine” value [1] is listed as “active”.
In the case of CCCCCCCc1c(C)[nH]c2cc(OC)ccc2c1=O [endochin], the “activity in the avian malaria model” value (avian malaria) is listed as “high activity”.
